In brackets after ≈: the same amount, converted by molar mass.
Conditions: buffer; pH 7.4; 200.0 µM

Question: For `CCOc1ccc(S(=O)(=O)N2CCNC(=O)C2)cc1`, which solubility kinetic is on record?
Answer: > 42.6 µg/mL

Question: Which solubility kinetic does the source give for `NS(=O)(=O)c1ccc(CNC(=O)c2ccccn2)cc1` here?
Answer: > 43.7 µg/mL

Question: Which solubility kinetic does the source give for `Cc1ccc(S(=O)(=O)N2CC=C(C(=O)NC3CC3)CC2)cc1` here?
Answer: 40.5 µg/mL (≈ 126 µM)

Question: For `Nc1nc(SCCO)[nH]c(=O)c1NC(=O)c1ccco1`, which solubility kinetic is on record?
Answer: > 44.4 µg/mL

Question: Which solubility kinetic does the source give for `CCCc1ccc(C(=O)NC(=O)c2ccccc2O)cc1` here?
Answer: 3.2 µg/mL (≈ 11.3 µM)

Question: For `O=C(Nc1ccc(Cl)cc1)Nc1ccccn1`, which solubility kinetic is on record?
Answer: 0.6 µg/mL (≈ 2.42 µM)

Question: Which solubility kinetic does the source give for `COc1cccc(C2=NOC(C(=O)Nc3cc(C)on3)C2)c1OC` (centres undefined) here?
Answer: 46.5 µg/mL (≈ 140 µM)

Question: With `O=C1CCCN1c1ccc(N2CCCC2=O)cc1` as the molecule, how does the solubility kinetic read?
Answer: > 36.6 µg/mL

Question: For `Cc1c(C(=O)NC(C)c2ccccn2)oc2c(Cl)cccc12` (centres undefined), which solubility kinetic is on record?
Answer: 24.4 µg/mL (≈ 77.5 µM)

Question: For `COc1ccc(C)cc1NC(=O)CSc1cccc[n+]1[O-]`, which solubility kinetic is on record?
Answer: > 45.7 µg/mL

Question: With `Cc1ccc(NC(=O)COC(=O)c2ccco2)cc1S(=O)(=O)N1CCOCC1` as the molecule, how does the solubility kinetic read?
Answer: > 61.3 µg/mL

Question: For `CCCC(=O)Nc1ccc(C(=O)COC(=O)c2cc(C)oc2C)cc1`, which solubility kinetic is on record?
Answer: 6.7 µg/mL (≈ 19.5 µM)

Question: With `CCOc1ccc(NC(=O)CNC(=O)c2ccc(OC)cc2)cc1` as the molecule, how does the solubility kinetic read?
Answer: 4.1 µg/mL (≈ 12.5 µM)

Question: Which solubility kinetic does the source give for `COc1ccc(OC)c(-c2nc3ccccc3nc2-c2ccccc2)c1` here?
Answer: 0.6 µg/mL (≈ 1.75 µM)

Question: Which solubility kinetic does the source give for `CC(NS(=O)(=O)c1ccccc1)C1CC2CCC1C2` (centres undefined) here?
Answer: 6 µg/mL (≈ 21.5 µM)

Question: For `CC(OC(=O)Cn1ccccc1=O)C(=O)Nc1cc(Cl)cc(Cl)c1` (centres undefined), which solubility kinetic is on record?
Answer: > 55.4 µg/mL

Question: For `CCOc1ccccc1NC(=O)CN1C(=O)C(C)SC(C)C1=O` (centres undefined), which solubility kinetic is on record?
Answer: 34.5 µg/mL (≈ 103 µM)

Question: For `S=C1NCN(Cc2ccco2)CN1`, which solubility kinetic is on record?
Answer: > 29.6 µg/mL

Question: With `O=C(Nc1ccc(Nc2ccccc2)cc1)c1ccc(Cl)cc1[N+](=O)[O-]` as the molecule, how does the solubility kinetic read?
Answer: < 0.3 µg/mL

Question: With `COc1ccc(C)cc1Nc1nc(C)nc2sc(C)cc12` as the molecule, how does the solubility kinetic read?
Answer: 2.3 µg/mL (≈ 7.68 µM)

Question: For `CC1CCCCC12NC(=O)N(CC(=O)NCc1ccccc1)C2=O` (centres undefined), which solubility kinetic is on record?
Answer: > 49.4 µg/mL

Question: With `Cc1cc(C)n2ncc(C(=O)O)c2n1` as the molecule, how does the solubility kinetic read?
Answer: > 28.7 µg/mL

Question: With `CC(C)(C)CC(=O)Nc1ccc(S(=O)(=O)NC2=NCCCCC2)cc1` as the molecule, how does the solubility kinetic read?
Answer: > 54.8 µg/mL

Question: With `Cc1sc2ncnc(SCC(=O)N3CCCC(C(N)=O)C3)c2c1C` (centres undefined) as the molecule, how does the solubility kinetic read?
Answer: 53.6 µg/mL (≈ 147 µM)

Question: Which solubility kinetic does the source give for `COc1ccc(C(=O)NCCSc2ccccc2C)cc1` here?
Answer: 23.7 µg/mL (≈ 78.6 µM)

Question: Which solubility kinetic does the source give for `CCOP(=O)(c1ccc(N(C)C)cc1)C(O)c1ccccc1F` (centres undefined) here?
Answer: > 50.6 µg/mL

Question: Which solubility kinetic does the source give for `O=C1CN(C(=O)/C=C/c2cc(Br)ccc2F)CCN1` here?
Answer: > 49.1 µg/mL

Question: With `O=C(Cc1ccc(Cl)cc1)N1CCN(c2ccc(F)cc2)CC1` as the molecule, how does the solubility kinetic read?
Answer: 19 µg/mL (≈ 57.1 µM)

Question: With `Cc1ccc(NC(=O)CN(C)C(=O)COC(=O)[C@@H](NC(=O)c2ccccc2F)C(C)C)cc1` as the molecule, how does the solubility kinetic read?
Answer: > 68.6 µg/mL

Question: For `CC(=O)Nc1nc(C)c(C(C)(C)C)s1`, which solubility kinetic is on record?
Answer: > 31.8 µg/mL

Question: For `O=C(O)C1CCCN(S(=O)(=O)c2ccc(Br)s2)C1` (centres undefined), which solubility kinetic is on record?
Answer: 52.1 µg/mL (≈ 147 µM)

Question: Which solubility kinetic does the source give for `CC(C(=O)Nc1ccccc1)C(=O)Nc1ccccc1` here?
Answer: 21.8 µg/mL (≈ 81.2 µM)

Question: For `Cc1cc(NC(=O)C(C)Oc2ccccc2)no1` (centres undefined), which solubility kinetic is on record?
Answer: > 36.9 µg/mL

Question: For `O=C(NNC(=O)c1ccncc1)Nc1cccc(C(F)(F)F)c1`, which solubility kinetic is on record?
Answer: > 48.6 µg/mL

Question: Which solubility kinetic does the source give for `O=C(Nc1ccccc1)Nc1ccc2ccccc2c1` here?
Answer: < 0.3 µg/mL

Question: With `Cc1ccc(NC(=O)c2ccc(Cl)c(S(=O)(=O)NCc3ccco3)c2)c(O)c1` as the molecule, how does the solubility kinetic read?
Answer: 7.3 µg/mL (≈ 17.3 µM)

Question: Which solubility kinetic does the source give for `O=C(COC(=O)c1ccc([N+](=O)[O-])o1)NCc1ccccc1` here?
Answer: > 45.6 µg/mL

Question: Which solubility kinetic does the source give for `C=CCN(Cc1ccc(Cl)s1)C(=O)c1ccc(F)c(S(=O)(=O)N2CCOCC2)c1` here?
Answer: 23.8 µg/mL (≈ 51.9 µM)

Question: With `CN(C)Cc1c(O)ccc2occ(C(=O)c3ccc(F)cc3)c12` as the molecule, how does the solubility kinetic read?
Answer: > 47 µg/mL

Question: Which solubility kinetic does the source give for `COc1ccc(NS(=O)(=O)c2ccc(F)cc2F)cn1` here?
Answer: 43.3 µg/mL (≈ 144 µM)

Question: For `CCC(CO)N=CC1=C(O)CC(c2ccccc2)CC1=O` (centres undefined), which solubility kinetic is on record?
Answer: > 43.1 µg/mL

Question: For `COc1ccccc1NC(=S)N(Cc1cccs1)C1CCCC1`, which solubility kinetic is on record?
Answer: 6 µg/mL (≈ 17.3 µM)

Question: Which solubility kinetic does the source give for `CC1CCN(C(=O)COC(=O)Cn2cnc3ccccc32)CC1` here?
Answer: > 47.3 µg/mL

Question: Which solubility kinetic does the source give for `CN1CC(=O)N/C1=N\C(=O)Nc1ccc(O)cc1` here?
Answer: > 37.2 µg/mL

Question: For `COc1ccccc1-c1c(C#N)c(N)nc2c1CCC2`, which solubility kinetic is on record?
Answer: 5 µg/mL (≈ 18.8 µM)

Question: Which solubility kinetic does the source give for `CN1CCN(c2nc(NCc3ccco3)nc(N)c2[N+](=O)[O-])CC1` here?
Answer: > 50 µg/mL

Question: Which solubility kinetic does the source give for `O=C(NCCc1nc2ccccc2[nH]1)c1ccc([N+](=O)[O-])cc1` here?
Answer: 8.7 µg/mL (≈ 28 µM)

Question: For `Oc1ccc(Nc2nc(-c3ccccc3F)nc3ccccc23)cc1`, which solubility kinetic is on record?
Answer: 1.4 µg/mL (≈ 4.23 µM)

Question: With `CCC1CCC/C1=N\NC(=O)c1ccoc1C` (centres undefined) as the molecule, how does the solubility kinetic read?
Answer: > 35.1 µg/mL

Question: For `CCN(C(=O)COC(=O)c1cnccn1)c1cccc2ccccc12`, which solubility kinetic is on record?
Answer: > 50.3 µg/mL

Question: Which solubility kinetic does the source give for `O=C(CNc1ccccc1Cl)c1ccc(Br)cc1` here?
Answer: < 0.7 µg/mL

Question: With `CC(=O)c1ccc(Nc2nc(C)cc(C)n2)cc1` as the molecule, how does the solubility kinetic read?
Answer: 5.6 µg/mL (≈ 23.2 µM)

Question: Which solubility kinetic does the source give for `CCN(CC)C(=O)c1ccc(NC(=O)c2cccc(C(F)(F)F)c2)cc1` here?
Answer: 2.8 µg/mL (≈ 7.68 µM)

Question: With `CCCC(=O)Oc1cccc(C2NC(=O)c3ccccc3O2)c1` (centres undefined) as the molecule, how does the solubility kinetic read?
Answer: 18.8 µg/mL (≈ 60.4 µM)

Question: Which solubility kinetic does the source give for `CCOc1cccc2cc(C(=O)N3CCOCC3)c(=O)oc12` here?
Answer: > 45.5 µg/mL

Question: Which solubility kinetic does the source give for `Cc1ccc(C(=O)NC(C)c2ccc(-n3ccnc3)cc2)c(C)c1` (centres undefined) here?
Answer: 46 µg/mL (≈ 144 µM)

Question: For `CCOc1ccc2nc(SCC(=O)NCC3CCCO3)sc2c1` (centres undefined), which solubility kinetic is on record?
Answer: > 52.9 µg/mL

Question: Which solubility kinetic does the source give for `Cc1csc(SCC(=O)NC2CCS(=O)(=O)C2)n1` (centres undefined) here?
Answer: > 46 µg/mL

Question: Which solubility kinetic does the source give for `C=CCSc1nc(C)c(CCC(C)C)c(=O)[nH]1` here?
Answer: 9.2 µg/mL (≈ 36.5 µM)

Source: PubChem BioAssay AID1996
